O=C(O)CCCCCCC(=O)O
Conditions	solubility (mole fraction)
in THF, 283.15 K	0.0356
in THF, 289.75 K	0.0437
in THF, 296.85 K	0.0546
in THF, 303.75 K	0.0665
in THF, 310.75 K	0.0806
in THF, 317.95 K	0.0982
in THF, 324.95 K	0.117
in THF, 331.95 K	0.141
in acetone, 283.15 K	0.006
in acetone, 289.95 K	0.00833
in acetone, 296.85 K	0.0115
in acetone, 303.75 K	0.0154
in acetone, 310.75 K	0.0208
in acetone, 317.55 K	0.0292
in acetone, 322.75 K	0.035
in ethanol, 283.25 K	0.0158
in ethanol, 290.35 K	0.021
in ethanol, 297.05 K	0.0281
in ethanol, 303.85 K	0.0374
in ethanol, 310.95 K	0.0491
in ethanol, 317.85 K	0.0627
in ethanol, 324.85 K	0.0795
in ethyl acetate, 283.15 K	0.00167
in ethyl acetate, 289.95 K	0.00227
in ethyl acetate, 296.85 K	0.0031
in ethyl acetate, 303.95 K	0.00462
in ethyl acetate, 310.95 K	0.0065
in ethyl acetate, 317.75 K	0.00902
in ethyl acetate, 324.85 K	0.0125
in ethyl acetate, 331.75 K	0.0186
in isopropanol, 283.15 K	0.0145
in isopropanol, 289.95 K	0.0198
in isopropanol, 296.95 K	0.0271
in isopropanol, 303.55 K	0.0368
in isopropanol, 310.95 K	0.0486
in isopropanol, 317.95 K	0.0639
in isopropanol, 324.75 K	0.0816
in methanol, 283.25 K	0.0179
in methanol, 290.35 K	0.0242
in methanol, 297.05 K	0.0322
in methanol, 303.85 K	0.0443
in methanol, 310.95 K	0.0572
in methanol, 317.85 K	0.0748
in methanol, 324.85 K	0.0951
in n-propanol, 283.15 K	0.012
in n-propanol, 289.85 K	0.017
in n-propanol, 296.75 K	0.0233
in n-propanol, 303.85 K	0.0308
in n-propanol, 310.75 K	0.0422
in n-propanol, 317.75 K	0.0559
in n-propanol, 325.05 K	0.0718
in water, 283.25 K	9.14e-05
in water, 290.25 K	0.000131
in water, 297.15 K	0.0002
in water, 303.85 K	0.000291
in water, 310.85 K	0.000439
in water, 318.15 K	0.000662
in water, 325.15 K	0.00107
in water, 332.45 K	0.0017
in water, 339.15 K	0.00265
